The conditions of data set [1]: reported; cited from earlier work.
For data set [2], the system named is EZH2 target genes (KRT17, FBXO32) in MDA-MB-231 cells. The experiment in a line: Real-time RT-PCR cell based assay for up-regulation of H3K27me3 silenced genes. From the text: In order to monitor the reversal of epigenetic silencing associated with H3K27me3, a cell based assay was established using the breast-cancer cell line MDA-MB-231 for which EZH2 expression levels as well as EZH2 target genes have been characterised (17). For initial characterisation of compound activity two genes (KRT17, FBXO32) were selected which are primarily silenced by H3K27me3 in combination with H3K9me2/3 but are not DNA methylated. Furthermore, the DNA methylated gene (RUNX3) was selected to control for effects at loci that are silenced by H3K27me3 in combination with CpG island DNA methylation. The two enzymes which perform H3K27 methylation (EZH2) and demethylation (JMJD3) were also included. Cell death can lead to the down-regulation of EZH2 and up-regulation of JMJD3 in cells (36) and is therefore important to control for indirect effects due to cell death in such a cell-based assay.
In order to identify compounds which can mediate the reactivation of PRC2 silenced genes, MDA-MB-231 cells were treated for 48 h at a concentration of 10 μM of Example compounds 3 (HKMTi-1-005), 4 (HKMTi-1-022) or 5 (HKMTi-1-011), as well as with the comparative examples BIX-01294 or UNC0224, and mRNA levels of KRT17, FBXO32, RUNX3, as well as EZH2 and JMJD3 were measured by real-time RT-PCR. The data were normalised against the housekeeping gene GAPDH as well as RNA pol II (only results for GAPDH are shown, although consistent results were obtained with RNA pol II normalisation). […] The reported G9a/GLP specific inhibitors BIX01294 and UNC0224 have a very different activity profile on gene expression.
(§1) To characterise example compounds 3 (HKMTi-1-005), 4 (HKMTi-1-022) and 5 (HKMTi-1-011) further, MDA-MB-231 cells were treated for 48 h and 72 h at various concentrations (FIGS. 1d and e). […] At higher doses of compounds cell death started to occur, particularly at 72 h, which coincides with a dramatic drop in GAPDH levels. At these doses, expression of KRT17 was often below the detection limit of low-expressed genes due to cell death (indicated as “*” in FIGS. 1d and e). Independently synthesised batches of Example compounds 3 (HKMTi-1-005), 4 (HKMTi-1-022) and 5 (HKMTi-1-011) were prepared and assessed to ensure reproducibility of our results and indeed confirmed that those compounds could induce gene re-expression of KRT17 and FBXO32.
Cell culture and compound treatment: MDA-MB-231, T47D, MCF7, BT474, BT549 and SKBR3 breast cancer cell lines were cultured in DMEM-Medium supplemented with 10% FCS (#02.00.830, First Link (UK), 2 mM L-Glutamine (#25030-024, Invitrogen), 100 U/ml Penicillin and 100 μg/ml Streptavidin (#15070-063, Invitrogen) until they were ˜60% confluent and then treated for either 48 h or 72 h with a compound. Compounds were diluted in DMSO at Stocks of 10 mM. MCF-10a breast cell lines were cultured in DMEM/F12-Medium supplemented with 5% horse serum, EGF (20 ng/ml), Hydrocortizone ([…]), Cholera Toxin (100 ng/ml), Insulin (10 μg/ml) as well as 100 U/ml Penicillin and 100 μg/ml Streptavidin (#15070-063, Invitrogen). For MTT experiments, cells were either kept in DMEM/F12 growth medium or in normal DMEM-Medium to mimic the ‘normal’ non-dividing cell state.
Following compound treatment for 48 h (in 6-well plates), media was removed and 1.5 ml of TRIzol (#155966018, Invitrogen) was added directly to lyse cells. Once cells were lysed, the protocol was continued with 1 ml (TRIzol, cell lysate) according to the manufactures instructions. Purified RNA was dissolved in 35 μl of UltraPure DNase/RNase-free distilled water (#10977049, Invitrogen). Reverse transcription was done using the SuperScript III First-Strand Synthesis System (#18080-051, Invitrogen) according to the manufactures instructions, using 7 μl of the purified RNA as starting material. For real-time measurements the 2×iQ SYBR Green Supermix (#170-8882, Bio-Rad), 200 nM Primers and 0.4 μl of cDNA/per 20 μl reaction was used. […]

Data set [3] deals with EZH2 target genes in MDA MB-231 cells. The experiment in a line: Agilent two-colour gene expression microarrays, enrichment of EZH2 target genes. In kind it is cell-based. To be noted: MDA MB-231, 10 μM. How it is done:
Agilent two-colour microarrays were used to profile gene expression changes induced 24 h and 48 h after 10 μM treatment with example compound 3 (HKMTi-1-005) compared to compound HKMTi-1-012. […] Many of these EZH2 target genes are clearly differentially expressed following treatment with example compound 3 (HKMTi-1-005) compared to compound HKMTi-1-012, as shown in Table 2 in FIG. 5. Statistical enrichment of EZH2-target genes (Lee et al 2011) in the lists of differentially expressed genes was evaluated using the hypergeometric distribution. Example compound 3 (HKMTi-1-005) results in significant upregulation (p=3.3^−33 at 24 h and p=3.2^−21 at 48 h) and significant down-regulation (p=3.5^−37 at 24 h and p=3.8^−61 at 48 h) of EZH2 target genes. […]
Normalised log 2 gene expression ratios were analysed using LIMMA (Smyth 2004) to obtain empirical Bayes moderated t-statistics reflecting statistical significance of differential expression across the 4 replicates for each drug, time combination. […]
Statistical significance of overlap between these lists of EZH2 targets and the genes differentially expressed upon drug treatment in our microarray study was assessed using the hypergeometric distribution.

Data set [4] concerns histone marks at KRT17 and FBXO32 promoter region in MDA-MB-231 cells. The experiment in a line: Chromatin Immunoprecipitation (ChIP) at KRT17 and FBXO32 promoter. In kind it is cell-based. To be noted: MDA-MB-231, 5 μM, 72 h. As for the experimental part:
The fold difference to the untreated sample is shown. Each IP-value has been determined as the relative increase to the no-antibody control and then normalised to GAPDH levels.
Chromatin Immunoprecipitation (ChIP) experiments were carried out on treated MDA-MB-231 cells to verify that the detected gene up-regulation is indeed due to chromatin remodelling (FIG. 2). For this, typical silencing marks such as H3K9me3 and H3K27me3 were tested as well as activating marks such as H3K4me3, H3K27ac and H3K9ac. […] It should be noted that greater than 50% cell death is observed for compound 5 (HKMTi-1-011) at this concentration, but not for the others, and the changes observed in histone marks for compound 5 (HKMT-1-011) may reflect ongoing cell death.
ChIP was accomplished using Dynabeads Protein A (Invitrogen #100-01D.) according to (41), except that following the Chelex-DNA purification an additional purification with QIAquick PCR Purification Kit (#28106, Qiagen) was carried out, here the ChIP-products were eluted in 50 μl and for subsequent real-time measurements (as described above) 1.5 μl per reaction was used. The list of Primers can be found in FIG. 7 (Supplementary Table 2).

In a further data set the test system is MDA-MB-231 cells. The data set is described as follows: Cell death of treated MDA-MB-231 cells. The following applies: MDA-MB-231, concentration of the ChIP experiment (5 μM, 72 h). In kind it is cell-based. How it is done: as §1
Chromatin Immunoprecipitation (ChIP) experiments were carried out on treated MDA-MB-231 cells to verify that the detected gene up-regulation is indeed due to chromatin remodelling (FIG. 2). For this, typical silencing marks such as H3K9me3 and H3K27me3 were tested as well as activating marks such as H3K4me3, H3K27ac and H3K9ac. […] It should be noted that greater than 50% cell death is observed for compound 5 (HKMTi-1-011) at this concentration, but not for the others, and the changes observed in histone marks for compound 5 (HKMT-1-011) may reflect ongoing cell death. […]

The mark [5] stands for this setting: MDA-MB-231, 10 μM, 48 h, normalised to GAPDH.
Where [6] appears, read: MDA-MB-231, various concentrations, 48 h and 72 h.

Turning to `COc1cc2nc(N3CCCN(C)CC3)nc(NC3CCN(Cc4ccccc4)CC3)c2cc1OC` [BIX-01294, reference compound], the “separation of functional potency and cell toxicity” value in data set [1] is “poor separation of functional potency and cell toxicity”. Also, in data set [2] (setting [5]), the “FBXO32 RNA levels” value is recorded as “does up-regulate” and the “KRT17 RNA levels” value is reported as “does not up-regulate”.
As to `Nc1nccc2c1ncn2C1C=C(CO)C(O)C1O` (stereo not drawn) [DZNep, reference compound], in data set [2] (setting [6]), the “EZH2 mRNA level” value is on record as “unaffected”, the “FBXO32 mRNA level” value is recorded as “unaffected”, the “JMJD3 mRNA level” value is “unaffected” and the “KRT17 mRNA level” value is given as “consistently up-regulated”. Further, the RUNX3 expression result in data set [2] (setting [6]) is on record as “increased under certain conditions although not in a dose dependent manner”.
For the compound `COc1cc2nc(N3CCN(C)CC3)nc(NC3CCN(Cc4ccccc4)CC3)c2cc1OC` [HKMTi-1-005], the “functional enrichment of changed pathways (DAVID)” value in data set [3] was “upregulation of apoptosis genes and the lysosome pathway, and a downregulation of a number of processes related to cell cycle & cell division”. In data set [2] (setting [5]), the “FBXO32 RNA levels” value is “up-regulate”, the “KRT17 RNA levels” value is “up-regulate” and the RUNX3 expression entry is reported as “not effecting”. For the same compound, in data set [2] (setting [6]), the “FBXO32 mRNA level” value is listed as “dose-dependent increase”, the “JMJD3 mRNA level” value is on record as “dose-dependent increase” and the “KRT17 mRNA level” value is recorded as “dose-dependent increase”. In data set [4], the “permissive chromatin marks (H3K4me3, H3K4me2, H3K9ac, H3K27ac)” value (“permissive chromatin marks” below) is “increase in most permissive marks”; the “repressive chromatin marks (H3K27me3, H3K9me3) at KRT17 and FBXO32” value (“repressive chromatin marks” for short) is “clear decrease”.
Take `COc1cc2nc(N3CCN(c4ccccn4)CC3)nc(NC3CCN(Cc4ccccc4)CC3)c2cc1OC` [HKMTi-1-011]: the cell death result in the data set on MDA-MB-231 cells was “greater than 50%”. In data set [2] (setting [5]), the “FBXO32 RNA levels” value was “up-regulate”, the “KRT17 RNA levels” value is given as “up-regulate” and the RUNX3 expression result is “not effecting”. In data set [2] (setting [6]), the “FBXO32 mRNA level” value is “increase in a dose dependent manner”, the “JMJD3 mRNA level” value is “increase in a dose dependent manner” and the “KRT17 mRNA level” value is on record as “increase in a dose dependent manner”. In addition, in data set [4], the “permissive chromatin marks” value is recorded as “increase in most permissive marks”; the “repressive chromatin marks” value is “clear decrease”.
With `COc1cc2nc(N3CCCCC3)nc(NC3CCN(Cc4ccccc4)CC3)c2cc1OC` [HKMTi-1-022], in data set [2] (setting [5]), the “FBXO32 RNA levels” value is recorded as “up-regulate”, the “KRT17 RNA levels” value is listed as “up-regulate” and the RUNX3 expression result is given as “not effecting”. Moreover, in data set [2] (setting [6]), the “FBXO32 mRNA level” value is reported as “increase in a dose dependent manner”, the “JMJD3 mRNA level” value is “increase in a dose dependent manner” and the “KRT17 mRNA level” value is “increase in a dose dependent manner”. In addition, in data set [4], the JMJD3 binding entry is reported as “increase”; the “permissive chromatin marks” value is “increase of the activating marks H3K4me3, H3K27ac and H3K9ac”; the “repressive chromatin marks” value is “clear decrease”. Also, the “permissive chromatin marks” value in data set [4] (listed as HKMT-1-022) is on record as “concomitant increase in all permissive chromatin marks examined”.
For the compound `COc1cc2c(NC3CCN(C)CC3)nc(N3CCCN(C)CC3)nc2cc1OCCCN(C)C` [UNC0224, reference compound], in data set [2] (setting [5]), the “FBXO32 RNA levels” value is listed as “very little effect” and the “KRT17 RNA levels” value was “very little effect”. For the same compound, in data set [2] (MDA-MB-231, 10 μM, compared with example compounds 3, 4 and 5), the “gene expression profile in the cell assay (KRT17, FBXO32, RUNX3)” value is recorded as “very little effect”.

The values are drawn from patent US9932317B2, “Quinazoline compounds and their use in therapy” (Imperial Innovations Limited, priority 2012, dated 2018).
